This is an account of results in ChEMBL document CHEMBL4376816, “Discovery of the Oral Leukotriene C4 Synthase Inhibitor (1S,2S)-2-({5-[(5-Chloro-2,4-difluorophenyl)(2-fluoro-2-methylpropyl)amino]-3-methoxypyrazin-2-yl}carbonyl)cyclopropanecarboxylic Acid (AZD9898) as a New Treatment for Asthma” (J Med Chem, 2019).

A short description of data set [1]: Octanol/Sodium phosphate buffer partition coefficient, log D of compound at pH 7.4 at 1 mg incubated for overnight under shaking condition by LC-MS/MS analysis. It is filed as physicochemical.
Data set [2] in a line: Intrinsic clearance in human hepatocytes at 1 uM assessed as per million cells after 2 to 60 mins by LC-MS/MS analysis. It is filed as ADME, cell-based, Hepatocyte. The conditions noted are these: read-out: CLH.
The nature of data set [3]: Displacement of [3H]-GABA/[3]-muscimol from GABA gated chloride channel in Sprague-Dawley rat cortical synoptic membranes by liquid scintillation analysis.

For orientation: logD means lipophilicity at a set pH, counting ionised and neutral species. High values mean a more lipophilic compound, low ones a more hydrophilic compound. As a reminder, the IC50 is the midpoint of a concentration-inhibition curve. A high value points to weaker potency in that assay.

In data set [1], `COc1cc(N(CC2CC2)c2ccc(Cl)c3ccccc23)cnc1C(=O)CCCC(=O)O` displayed a logD of 2.8. The hepatocyte CLint at 1 µM in data set [2] amounted to 6.8 µL/min/1e6 cells.

For `COc1cc(N(CC2CC2)c2cccc(C(F)(F)F)c2)cnc1C(=O)[C@H]1C[C@@H]1C(=O)O`, in data set [1], the logD amounted to 1.4. Also, the hepatocyte CLint at 1 µM in data set [2] worked out at 2.3 µL/min/1e6 cells. In data set [3], this molecule had a concentration for half-maximal inhibition (IC50) of 11 µM.

`COc1cc(N(Cc2ccc(F)cc2)c2cccc(C(F)(F)F)c2)cnc1C(=O)[C@H]1C[C@@H]1C(=O)O` returned a pH-dependent lipophilicity (logD) in data set [1] of 1.9. Also, the hepatocyte CLint at 1 µM in data set [2] worked out at 4.2 µL/min/1e6 cells.

Molecule `COc1cc(N(CC(C)C)c2ccc(F)c3ccccc23)cnc1C(=O)[C@H]1C[C@@H]1C(=O)O` gave a log distribution coefficient (logD) in data set [1] of 2.2. Besides, in data set [2], the hepatocyte CLint at 1 µM stood at 56 µL/min/1e6 cells.

In data set [1], `CCCN(c1cccc(C(F)(F)F)c1)c1cnc(C(=O)[C@H]2C[C@@H]2C(=O)O)c(OC)c1` returned a logD of 1.2. Besides, the hepatocyte CLint at 1 µM in data set [2] is 7.2 µL/min/1e6 cells. Moreover, the half-maximal inhibitory concentration (IC50) in data set [3] worked out at 19 µM.

Consider `CCCN(c1cnc(C(=O)[C@H]2C[C@@H]2C(=O)O)c(OC)c1)c1ccc(F)c2ccccc12`, for which the log distribution coefficient (logD) in data set [1] came to 1.8. For the same molecule, the hepatocyte CLint at 1 µM in data set [2] amounted to 7.6 µL/min/1e6 cells. The same molecule displayed a concentration for half-maximal inhibition (IC50) in data set [3] of 3.5 µM.

Take `COc1cc(N(CC2CC2)c2cc(Cl)ccc2F)cnc1C(=O)[C@H]1C[C@@H]1C(=O)O`: the log distribution coefficient (logD) in data set [1] amounted to 1.1. The hepatocyte CLint at 1 µM in data set [2] stood at 1.3 µL/min/1e6 cells.

`COc1cc(N(CC(C)C)c2cc(Cl)c(F)cc2F)cnc1C(=O)[C@H]1C[C@@H]1C(=O)O`: the logD in data set [1] was 1.3. Also, the hepatocyte CLint at 1 µM in data set [2] is 4.9 µL/min/1e6 cells.

`COc1cc(N(CC(C)(C)O)c2cccc(C(F)(F)F)c2)cnc1C(=O)[C@H]1C[C@@H]1C(=O)O`: in data set [1], the logD is 0. For the same molecule, the 50% inhibitory concentration (IC50) in data set [3] was above 100 µM.

The molecule `COc1cc(N(CC2CC2)c2ccc(Cl)cc2)cnc1C(=O)c1cccc(C(=O)O)c1` showed a pH-dependent lipophilicity (logD) in data set [1] of 1.7. Besides, in data set [2], the hepatocyte CLint at 1 µM came out at 28 µL/min/1e6 cells.

`COc1cc(N(CC2CC2)c2ccc(F)c3ccccc23)cnc1C(=O)[C@H]1C[C@@H]1C(=O)O`: the log distribution coefficient (logD) in data set [1] amounted to 1.9. Moreover, the hepatocyte CLint at 1 µM in data set [2] amounted to 5.4 µL/min/1e6 cells. In data set [3], this molecule came in with an IC50 of 0.64 µM.

Take `COc1cc(N(CC2CC2)c2ccc(Cl)cc2)cnc1C(=O)[C@@H]1C[C@H]1C(=O)O` (relative stereo): in data set [1], the pH-dependent lipophilicity (logD) was found to be 1.3. For the same molecule, in data set [2], the hepatocyte CLint at 1 µM came to 1.8 µL/min/1e6 cells.

`CCN(c1cccc(C(F)(F)F)c1)c1cnc(C(=O)[C@H]2C[C@@H]2C(=O)O)c(OC)c1`: in data set [1], the logD was determined as 0.7. Further, the hepatocyte CLint at 1 µM in data set [2] amounted to 3.1 µL/min/1e6 cells. The molecule also showed an IC50 in data set [3] of 20 µM.

For `COc1cc(N(CC(C)(C)F)c2cc(Cl)c(F)cc2F)cnc1C(=O)[C@H]1C[C@@H]1C(=O)O`, in data set [1], the pH-dependent lipophilicity (logD) came out at 0.8. Further, in data set [2], the hepatocyte CLint at 1 µM is below 1.7 µL/min/1e6 cells.

The molecule `COc1cc(N(CC2CC2)c2cc(C(F)(F)F)ccc2F)cnc1C(=O)[C@H]1C[C@@H]1C(=O)O` displayed a log distribution coefficient (logD) in data set [1] of 1.2. Moreover, the hepatocyte CLint at 1 µM in data set [2] was below 1.1 µL/min/1e6 cells. Also, the IC50 in data set [3] came to 8.2 µM.

In data set [1], `COc1cc(N(CC(C)(C)F)c2cc(C(F)(F)F)ccc2F)cnc1C(=O)[C@H]1C[C@@H]1C(=O)O` showed a logD of 0.8. Also, the hepatocyte CLint at 1 µM in data set [2] is below 1 µL/min/1e6 cells.

Regarding `COc1cc(N(CC2CC2)c2ccccc2)cnc1C(=O)[C@H]1C[C@@H]1C(=O)O`, the pH-dependent lipophilicity (logD) in data set [1] was 0.65. Besides, the hepatocyte CLint at 1 µM in data set [2] turned out to be 3 µL/min/1e6 cells.

Take `CCN(c1cnc(C(=O)[C@H]2C[C@@H]2C(=O)O)c(OC)c1)c1ccc(F)c2ccccc12`: in data set [1], the logD was 1.4. Moreover, in data set [2], the hepatocyte CLint at 1 µM is 3.8 µL/min/1e6 cells. In data set [3], this molecule came in with a half-inhibitory concentration (IC50) of 2.9 µM.

In the case of `COc1cc(N(CC(C)C)c2cccc(C(F)(F)F)c2)cnc1C(=O)[C@H]1C[C@@H]1C(=O)O`, the logD in data set [1] turned out to be 1.6. Besides, in data set [2], the hepatocyte CLint at 1 µM turned out to be 2.9 µL/min/1e6 cells.

With `COc1cc(N(CC(F)(F)F)c2cccc(C(F)(F)F)c2)cnc1C(=O)[C@H]1C[C@@H]1C(=O)O`, in data set [1], the logD is 1.1.

`COc1cc(N(CC2CC2)c2ccc(Cl)c(Cl)c2)cnc1C(=O)[C@H]1C[C@@H]1C(=O)O` returned a pH-dependent lipophilicity (logD) in data set [1] of 1.6. Moreover, the hepatocyte CLint at 1 µM in data set [2] is 4.3 µL/min/1e6 cells.
